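Cells were grown in 96-well plates and exposed to each compound for 48 hours at five concentrations; endpoints were interpolated linearly between bracketing concentrations, or set to the highest concentration if not reached. At the TGI there is no net growth.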
How the values were obtained:
Experiment in all cases: NCI tumour cell line growth inhibition, 48 h
DMS 114 small cell lung = tested on: DMS 114 small cell lung
DMS 273 small cell lung = tested on: DMS 273 small cell lung
KM20L2 colon = tested on: KM20L2 colon
LXFL 529 NSCLC = tested on: LXFL 529 NSCLC
DLD-1 colon = tested on: DLD-1 colon
XF 498 CNS = tested on: XF 498 CNS
SNB-78 CNS = tested on: SNB-78 CNS
RXF-631 renal = tested on: RXF-631 renal
HOP-18 NSCLC = tested on: HOP-18 NSCLC
P388 leukemia = tested on: P388 leukemia
P388/ADR leukemia = tested on: P388/ADR leukemia
SN12K1 renal = tested on: SN12K1 renal

| Compound | TGI (DMS 114 small cell lung) | TGI (DMS 273 small cell lung) | TGI (KM20L2 colon) | TGI (LXFL 529 NSCLC) | TGI (DLD-1 colon) | TGI (XF 498 CNS) | TGI (SNB-78 CNS) | TGI (RXF-631 renal) | TGI (HOP-18 NSCLC) | TGI (P388 leukemia) | TGI (P388/ADR leukemia) | TGI (SN12K1 renal) |
| --- | --- | --- | --- | --- | --- | --- | --- | --- | --- | --- | --- | --- |
| CC(C)OP(=O)(OC(C)C)c1nc(-c2ccccc2)n(-c2ccc([N+](=O)[O-])cc2)n1 | > 100 µM | > 100 µM | > 100 µM | > 100 µM | > 100 µM | > 100 µM |  |  |  |  |  |  |
| CCCCCCCCCCCCCCCCCCN(C)C(COC)COP(=O)([O-])OCC[N+](C)(C)C (stereo not drawn) |  | 2.92 µM | 6.92 µM | 15.4 µM | 13.8 µM | 39.8 µM | 18.3 µM | 26 µM | 17 µM |  |  |  |
| O=P1(Oc2ccc(Cl)cc2Cl)Oc2ccc3ccccc3c2-c2c(ccc3ccccc23)O1 |  | > 93.2 µM | > 76.2 µM |  | > 100 µM | 56.7 µM | > 83.8 µM |  | > 100 µM | > 100 µM | > 100 µM | 43.1 µM |
| COc1ccc2cc3[nH]c(=O)cc(O)c3cc2c1OC | > 100 µM |  | > 100 µM | > 100 µM |  | > 100 µM | > 100 µM | > 100 µM | > 100 µM |  |  |  |
| COc1ccc(C2SCC(=O)N2NC(=O)c2ccncc2)cc1F (stereo not drawn) | > 100 µM | > 100 µM | > 100 µM | > 100 µM | > 100 µM | > 100 µM | > 100 µM |  | > 100 µM |  |  |  |
